Assay results: patent US20100197591A1, “4-AMINO-7,8-DIHYDROPYRIDO[4,3-d]PYRIMIDIN-5(6H)-ONE DERIVATIVES” (pfizer Inc, priority 2009, published 2010)

What was measured:
Type in all cases: biochemical
[1] = molecular target: T1, Human full-length diacylglycerol:acylCoA acyltransferase 1 (DGAT-1) (Homo sapiens, UniProt O75907); experiment: DGAT-1 Reduced Microsome Multidose Assay, G7329F Human IC50; conditions: crude membrane fraction of Sf9 cells expressing human DGAT-1; [14C]decanoylCoA; apparent IC50, average where tested more than once
T1 construct: Human full-length diacylglycerol:acylCoA acyltransferase 1 (DGAT-1) was expressed in Sf9 insect cells; made in house; host or cells: Sf9 insect cells (baculovirus); crude membrane/microsome fraction
T1 sequence (O75907 1-488): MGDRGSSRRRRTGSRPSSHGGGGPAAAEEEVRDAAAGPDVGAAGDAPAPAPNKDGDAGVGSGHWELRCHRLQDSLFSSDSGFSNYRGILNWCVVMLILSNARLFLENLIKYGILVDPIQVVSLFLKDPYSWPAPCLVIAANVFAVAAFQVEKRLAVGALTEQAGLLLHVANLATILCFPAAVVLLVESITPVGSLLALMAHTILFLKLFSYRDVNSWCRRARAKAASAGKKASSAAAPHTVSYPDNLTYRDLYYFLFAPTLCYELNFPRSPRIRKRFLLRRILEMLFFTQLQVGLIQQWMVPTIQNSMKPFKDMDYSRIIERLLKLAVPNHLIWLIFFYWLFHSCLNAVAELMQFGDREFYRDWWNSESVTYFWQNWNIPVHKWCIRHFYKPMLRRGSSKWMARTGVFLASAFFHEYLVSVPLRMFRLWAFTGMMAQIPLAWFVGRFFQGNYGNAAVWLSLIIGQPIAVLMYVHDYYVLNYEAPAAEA
How it was run: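 Sf9-expressed full-length DGAT-1 microsomes (25 or 5 μg/mL) with incorporated 1,2-dioleoyl-sn-glycerol (75 μM), pH 7.5 Hepes, 20 μM [14C]decanoylCoA, 2.5% DMSO, inhibitor pre-incubated. Eight (3 nM–10 μM) or eleven concentrations; 14C product by scintillation gives apparent IC50, averaged over repeats.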

[2] = molecular target: T1, Human full-length diacylglycerol:acylCoA acyltransferase 1 (DGAT-1); experiment: DGAT-1 Reduced Microsome Multidose Assay, G7829E Human IC50; conditions: crude membrane fraction of Sf9 cells expressing human DGAT-1; [14C]decanoylCoA; terminated with 5 μl of 1.4% phosphoric acid instead of HCl; average where tested more than once
Method: (§1) Human full-length diacylglycerol:acylCoA acyltransferase 1 (DGAT-1) was expressed in Sf9 insect cells which are then lysed and a crude membrane fraction (105,000×g pellet) was prepared. The DGAT-1 gene is a human DGAT-1 gene described in J Biol Chem 273:26765 (1998) and U.S. Pat. No. 6,100,077.
(§2) In vitro inhibition of DGAT-1 was measured using a modification, further described below, of the assay methodology described in U.S. Pat. No. 6,994,956 B2.
(§3) The cells were cultured as follows. Sf9 cells (20 L) were infected with 4 mL of DGAT-1 Baculovirus Infected Insect Cells (BIIC) for 72 hours in a Wave Bioreactor System 20/50P (Wave Biotec/GE Healthcare).
(§4) Crude DGAT-1 microsomes were prepared as follows. Cell pellets were washed once with ice-cold Dulbecco's phosphate-buffered saline. Cells were collected in tabletop centrifuge (Beckman GS-6KR), 15 minutes, 2000×g, 4° C. Twenty (20) mL of ice-cold Microsome Buffer (MB) was added per 5 g of cell pellet. The suspension was passed through a microfluidizer 3 times (18K psi). The lysate was transferred to centrifuge tubes and centrifuged for 20 minutes at 5000×g (Beckman-Coulter, Inc. Allegra® 64R High-Speed Refrigerated Benchtop Centrifuge, F0650 rotor) at 4° C. The supernatant was transferred to ultracentrifuge tubes and centrifuged at 125,000×g for 1 hour in a Beckman Ti-45 rotor, 4° C. The supernatant fluid was discarded. The pellet was resuspended in 70 mL of MB by sonication. The microsome concentration was determined using Bio-Rad Protein DC Protein Assay. The microsomes were filter sterilized with a 0.22 μm filter. The samples were portioned, flash frozen and stored at −80° C.
(§5) The Microsome Buffer, used for microsome preparation, was prepared by conventional means and contained 125 mM sucrose, 3 mM imidazole, 0.2 μg/mL aprotinin, 0.2 μg/mL leupeptin and 5 mM dithiothreitol (Cleland's reagent), DGAT-1 activity was measured in 384-well format in a total assay volume of 25 μl that contained, Hepes buffer (50 mM, pH 7.5), MgCl2 (10 mM), bovine serum albumin (0.6 mg/ml), [^14C]decanoylCoA (20 μM, 58 Ci/mol) and membranes (25 μg/ml) into which 1,2 dioleoyl-sn-glycerol (75 μM) in acetone has already been incorporated. Inhibitors in DMSO were pre-incubated with membranes before initiating the DGAT-1 reaction by the addition of decanoylCoA. […] The DMSO concentration was 2.5%. The inhibitors were present at a range of eight concentrations to generate an apparent IC50 for each compound. The eight inhibitor concentration employed ranged from 10 μM to 3 nM (from high to low concentration). Specifically, the eight concentrations used were 10 μM, 3 μM, 1 μM, 300 nM, 100 nM, 30 nM, 10 nM and 3 nM.
(§6) Reaction mixtures were neutralized by the addition of 15 μl of tris(hydroxy-methyl)aminomethane (1M, pH 8.0) and then mixed by trituration with 37.5 μl of Microscint™-E (Perkin Elmer). Plates contents were allowed to partition for 15 to 30 min before ^14C was measured in a scintillation spectrometer (Wallac Microbeta Trilux 1450-030 liquid scintillation counter 12 detector in the top-count DPM mode). Percent inhibition of test compounds was computed as 100-((DPM DMSO uninhibited-DPM test compound)/(DPM DMSO uninhibited)).
Four separate assays were performed using 4 different methods of analysis. The method of analysis of Assay 1 was the same as Assay 4 (described above) except microsomes were utilized at 25 μg/mL instead of 5 μg/mL. The method of analysis of Assay 2 was the same as Assay 4 (described above) except eleven (11) concentrations of inhibitor were employed instead of eight (8). The method of analysis of Assay 3 was the same as Assay 2 except the compounds were serially diluted in a different laboratory.
Where this DGAT-1 inhibition assay was performed on a compound more than once, an average is provided for that compound.

[3] = molecular target: T1, Human full-length diacylglycerol:acylCoA acyltransferase 1 (DGAT-1); experiment: DGAT-1 Reduced Microsome Multidose Assay, G7329E Human IC50; conditions: crude membrane fraction of Sf9 cells expressing human DGAT-1; [14C]decanoylCoA; apparent IC50, average where tested more than once
Method: as §1, §2, §3, §4, §5, §6
Four separate assays were performed using 4 different methods of analysis. The method of analysis of Assay 1 was the same as Assay 4 (described above) except microsomes were utilized at 25 μg/mL instead of 5 μg/mL. […]

[4] = molecular target: T1, Human full-length diacylglycerol:acylCoA acyltransferase 1 (DGAT-1); experiment: DGAT-1 Reduced Microsome Multidose Assay, G7329B Human IC50; conditions: crude membrane fraction of Sf9 cells expressing human DGAT-1; [14C]decanoylCoA; apparent IC50, average where tested more than once
Method: as §1, §2, §3
Crude DGAT-1 microsomes were prepared as follows. Cell pellets were washed once with ice-cold Dulbecco's phosphate-buffered saline. Cells were collected in tabletop centrifuge (Beckman GS-6KR), 15 minutes, 2000×g, 4° C. Twenty (20) mL of ice-cold Microsome Buffer (MB) was added per 5 g of cell pellet. The suspension was passed through a microfluidizer 3 times (18K psi). […] The microsome concentration was determined using Bio-Rad Protein DC Protein Assay. […]
The Microsome Buffer, used for microsome preparation, was prepared by conventional means and contained 125 mM sucrose, 3 mM imidazole, 0.2 μg/mL aprotinin, 0.2 μg/mL leupeptin and 5 mM dithiothreitol (Cleland's reagent), DGAT-1 activity was measured in 384-well format in a total assay volume of 25 μl that contained, Hepes buffer (50 mM, pH 7.5), MgCl2 (10 mM), bovine serum albumin (0.6 mg/ml), [^14C]decanoylCoA (20 μM, 58 Ci/mol) and membranes (25 μg/ml) into which 1,2 dioleoyl-sn-glycerol (75 μM) in acetone has already been incorporated. […]
as §6, with “Percent inhibition of test compounds was computed as 100-((DPM DMSO uninhibited-DPM test compound)/(DPM DMSO uninhibited)).” left out

SMILES | IC50 [1] [µM] | IC50 [2] [µM] | IC50 [3] [µM] | IC50 [4] [µM]
COc1nc(N)c2c(n1)CCN(c1ccc(C(C)(C)c3ncno3)cc1)C2=O (single isomer, unassigned) [Example 3L] | 0.0689 | 0.0673 |  | 
COc1nc(N)c2c(n1)CCN(c1ccc(C(C)(C)c3ncon3)cc1)C2=O (single isomer, unassigned) [Example 3M, 4-amino-2-methoxy-6-{4-[1-methyl-1-(1,2,4-oxadiazol-3-yl)ethyl]phenyl}-7,8-dihydropyrido[4,3-d]pyrimidin-5(6H)-one] | 0.0778 | 0.0552 |  | 
COc1nc(N)c2c(n1)CCN(c1ccc(C(=O)OCC(C)(C)C)cc1)C2=O [Example 2F, 2,2-dimethylpropyl 4-(4-amino-2-methoxy-5-oxo-7,8-dihydropyrido[4,3-d]pyrimidin-6(5H)-yl)benzoate] | 0.112 | 0.0551 |  | 
COc1nc(N)c2c(n1)CCN(c1ccc(C(C)(C)c3nnn(C)n3)cc1)C2=O [Example 3R, 4-amino-2-methoxy-6-{4-[1-methyl-1-(2-methyl-2H-tetrazol-5-yl)ethyl]phenyl}-7,8-dihydropyrido[4,3-d]pyrimidin-5(6H)-one] |  | 0.0211 |  | 
COc1nc(N)c2c(n1)CCN(c1ccc(C(C)(C)CNC(=O)OC(C)(C)C)cc1)C2=O [Example 3T, tert-butyl {2-[4-(4-amino-2-methoxy-5-oxo-7,8-dihydropyrido[4,3-d]pyrimidin-6(5H)-yl)phenyl]-2-methylpropyl}carbamate] |  | 0.0196 |  | 
COc1nc(N)c2c(n1)CCN(c1ccc(C3(C#N)CCC3)cc1)C2=O [Example 4A, 1-[4-(4-amino-2-methoxy-5-oxo-7,8-dihydropyrido[4,3-d]pyrimidin-6(5H)-yl)phenyl]cyclobutanecarbonitrile] |  | 0.0207 |  | 
COc1nc(N)c2c(n1)CCN(c1ccc(C3(C(N)=O)CCC3)cc1)C2=O [Example 5A, 1-[4-(4-amino-2-methoxy-5-oxo-7,8-dihydropyrido[4,3-d]pyrimidin-6(5H)-yl)phenyl]cyclobutanecarboxamide] |  | 0.0786 |  | 
COc1nc(N)c2c(n1)CCN(c1ccc(C3(C(N)=O)CCCCC3)cc1)C2=O [Example 5B, 1-[4-(4-amino-2-methoxy-5-oxo-7,8-dihydropyrido[4,3-d]pyrimidin-6(5H)-yl)phenyl]cyclohexanecarboxamide] |  | 0.184 |  | 
COc1nc(N)c2c(n1)CCN(c1ccc(C3(C(N)=O)CCCC3)cc1)C2=O [Example 5C, 1-[4-(4-amino-2-methoxy-5-oxo-7,8-dihydropyrido[4,3-d]pyrimidin-6(5H)-yl)phenyl]cyclopentanecarboxamide] |  | 0.217 |  | 
COc1nc(N)c2c(n1)CCN(c1ccc(C(C)(C)C)cc1)C2=O [Example 6A, 4-amino-6-(4-tert-butylphenyl)-2-methoxy-7,8-dihydropyrido[4,3-d]pyrimidin-5(6H)-one] | 0.00888 |  | 0.049 | 
COc1nc(N)c2c(n1)CCN(c1ccc(C(C)C)cc1)C2=O [Example 6E, 4-amino-6-(4-isopropylphenyl)-2-methoxy-7,8-dihydropyrido[4,3-d]pyrimidin-5(6-H)-one] | 0.0171 |  | 0.0585 | 
COc1nc(N)c2c(n1)CCN(c1ccc([C@H]3CC[C@H](CC#N)CC3)cc1)C2=O [Example 7C, {trans-4-[4-(4-amino-2-methoxy-5-oxo-7,8-dihydropyrido[4,3-d]pyrimidin-6(5H)-yl)phenyl]cyclohexyl}acetonitrile] | 0.0325 |  | 0.133 | 
COc1nc(N)c2c(n1)CCN(c1ccc(I)cc1)C2=O [Example 9E, 4-amino-6-(4-iodophenyl)-2-methoxy-7,8-dihydropyrido[4,3-d]pyrimidin-5(6H)-one] |  |  | 0.124 | 
COc1nc(N)c2c(n1)CCN(c1ccc3c(c1)CC(C)(C)O3)C2=O [Example 9M, 4-amino-6-(2,2-dimethyl-2,3-dihydro-1-benzofuran-5-yl)-2-methoxy-7,8-dihydropyrido[4,3-d]pyrimidin-5(6H)-one] |  | 1.38 |  | 
Cc1nc(N)c2c(n1)CCN(c1ccc(I)cc1)C2=O [Example 9Q, 4-amino-6-(4-iodophenyl)-2-methyl-7,8-dihydropyrido[4,3-d]pyrimidin-5(6H)-one] |  |  | 13.7 | 5.03
Cc1nc(N)c2c(n1)CCN(c1ccc(C3CCC(CCO)CC3)cc1)C2=O (stereo not drawn) [Example 9R, 4-amino-6-{4-[4-(2-hydroxyethyl)cyclohexyl]phenyl}-2-methyl-7,8-dihydropyrido[4,3-d]pyrimidin-5(6H)-one] |  |  |  | 1.03
Cc1nc(N)c2c(n1)CCN(c1ccc(C3CCC(CC#N)CC3)cc1)C2=O (stereo not drawn) [Example 9T, {4-[4-(4-amino-2-methyl-5-oxo-7,8-dihydropyrido[4,3-d]pyrimidin-6(5H)-yl)phenyl]cyclohexyl}acetonitrile] |  |  |  | 1.89
